# Laboratory results published in US20100144626A1, “Treatment of Multi-Drug Resistant Bacterial Infections” (priority 2006, published 2010).
# Entries after “also recorded” stand apart in the source; their conditions may differ. Read-outs that look alike come from different tables or passages of the source.
# Key:
# [1] = in vivo, cited from earlier work
# [2] = test system: strains of Staphylococci and Enterococci with reduced susceptibility to vancomycin; test: Growth inhibition, summary of MIC testing; type: cell-based; conditions: summary in words
# Procedure: (§1) In example experiments miconazole nitrate, was dissolved in methanol and econazole nitrate and clotrimazole were dissolved in DMSO and methanol respectively. Other solvents that may be used include caster oil, pyridine, DMSO and 0.9% saline. For IV administration agents may be solubilised in polyethoxylated caster oil, or cyclodextrins such as sulfobutylether7-βcyclodextrin or hydroxypropyl-β-cyclodextrin and lactic acid. Minimum inhibitory concentrations (MICs) of a range of clinical and control bacterial organisms were measured according to BSAC (British Society for Antimicrobial Chemotherapy) guidelines, described briefly as follows;
# (§2) Stock solutions were prepared at concentrations of 1000 mg/L and 100 mg/L. The appropriate amounts of each stock solution were added to separate Petri dishes give the following final concentrations (after the addition of 20 mL molten agar): 128, 64, 32, 16, 8, 4, 2, 1, 0.5, 0.25, 0.12, 0.06, 0.03, 0.015 mg/L.
# (§3) The test organisms were grown overnight in 5 mL IST broth. Using a dilution in 0.9% saline of 1:500 for Gram-negative organisms and 1:100 for Gram-positive organisms, the appropriate agar plates were inoculated using a multipoint inoculator.
# (§4) Plates were incubated at 37° C. in air for 18-20 hours.
# (§5) The MIC is the minimum amount of an antibiotic at which there is no visible growth of bacteria. Tiny single colonies or faint hazes were not counted as growth.
# [3] = test system: Gram-negative organisms; test: Growth inhibition, summary of MIC testing; type: cell-based; conditions: summary in words
# Procedure: as §1, §2, §3, §4, §5
# [4] = test system: Escherichia coli NCTC 10418; test: MIC, agar dilution (BSAC guidelines); type: cell-based
# Procedure: as §1
# (§6) Preparation of Agar Plates and Broths
# (§7) Stock solutions of each agent were prepared using the formula:
# (§8) Where P=μg of active compound per mg (μg/mg) • V=volume required (mL) • C=final concentration of solution (mg/L) • W=weight of agent (mg) to be dissolved in volume V (mL)
# as §2
# (§9) Volumes (20 mL) of cooled molten IST agar (oxoid) was added to each Petri dish and mixed by swirling.
# (§10) After drying, the plates were stored at 4° C. and protected from light. Plates were used on the day of preparation.
# as §3, §4, §5
# [5] = test system: VISA, strain USA/VISA 5827; test: MIC, agar dilution (BSAC guidelines); type: cell-based; conditions: Staphylococcus aureus
# Procedure: as §1, §6, §7, §8, §2, §9, §10, §3, §4, §5
# [6] = test system: Enterococcus faecium (VRE) VanR B145344C LFE; test: MIC, agar dilution (BSAC guidelines); type: cell-based; conditions: E. faecium (VRE) VanR B145344C LFE
# Procedure: as §1, §6, §7, §8, §2, §9, §10, §3, §4, §5
# [7] = test system: VISA, strain USA/VISA 5836; test: MIC, agar dilution (BSAC guidelines); type: cell-based; conditions: Staphylococcus aureus
# Procedure: as §1, §6, §7, §8, §2, §9, §10, §3, §4, §5
# [8] = test system: VISA, strain VISA 3900 UK; test: MIC, agar dilution (BSAC guidelines); type: cell-based; conditions: Staphylococcus aureus
# Procedure: as §1, §6, §7, §8, §2, §9, §10, §3, §4, §5
# [9] = test system: Enterococcus faecium (VRE) E19 UAA/522 VanB; test: MIC, agar dilution (BSAC guidelines); type: cell-based; conditions: E. faecium (VRE) E19 UAA/522 VanB
# Procedure: as §1, §6, §7, §8, §2, §9, §10, §3, §4, §5
# [10] = test system: Enterococcus faecium (VRE) E15 VanA ATCC 4147; test: MIC, agar dilution (BSAC guidelines); type: cell-based
# Procedure: as §1, §6, §7, §8, §2, §9, §10, §3, §4, §5
# [11] = test system: Pseudomonas aeruginosa NCTC 10662; test: MIC, agar dilution (BSAC guidelines); type: cell-based
# Procedure: as §1, §6, §7, §8, §2, §9, §10, §3, §4, §5
# [12] = test system: Enterococcus gallinarum (VRE) E1 NCTC 12359 VanC1; test: MIC, agar dilution (BSAC guidelines); type: cell-based
# Procedure: as §1, §6, §7, §8, §2, §9, §10, §3, §4, §5
# [13] = test system: Acinetobacter Baumannii ATCC 19606; test: MIC, agar dilution (BSAC guidelines); type: cell-based
# Procedure: as §1, §6, §7, §8, §2, §9, §10, §3, §4, §5
# [14] = test system: Staphylococcus epidermidis ATCC 1228; test: MIC, agar dilution (BSAC guidelines); type: cell-based
# Procedure: as §1, §6, §7, §8, §2, §9, §10, §3, §4, §5
# [15] = test system: Enterococcus faecium (VRE) NCTC 7171; test: MIC, agar dilution (BSAC guidelines); type: cell-based
# Procedure: as §1, §6, §7, §8, §2, §9, §10, §3, §4, §5
# [16] = test system: Klebsiella pneumoniae ESBL 700603; test: MIC, agar dilution (BSAC guidelines); type: cell-based
# Procedure: as §1, §6, §7, §8, §2, §9, §10, §3, §4, §5
# [17] = test system: Enterococcus faecalis (VRE) E8 VanA; test: MIC, agar dilution (BSAC guidelines); type: cell-based; conditions: E. faecalis (VRE) E8 VanA
# Procedure: as §1, §6, §7, §8, §2, §9, §10, §3, §4, §5
# [18] = in vivo; cited from earlier work
# [19] = NCTC10418, E. coli NCTC 10418, replicate 1, read-out: Minimum inhibitory concentration (MIC)
# [20] = NCTC10418, E. coli NCTC 10418, replicate 2, read-out: Minimum inhibitory concentration (MIC)
# [21] = NCTC10418, E. coli NCTC 10418, replicate 3, read-out: Minimum inhibitory concentration (MIC)
# [22] = replicate 1, read-out: Minimum inhibitory concentration (MIC)
# [23] = replicate 2, read-out: Minimum inhibitory concentration (MIC)
# [24] = replicate 3, read-out: Minimum inhibitory concentration (MIC)
# [25] = E. faecium (VRE) E15 VanA ATCC 4147, replicate 1, read-out: Minimum inhibitory concentration (MIC)
# [26] = E. faecium (VRE) E15 VanA ATCC 4147, replicate 2, read-out: Minimum inhibitory concentration (MIC)
# [27] = E. faecium (VRE) E15 VanA ATCC 4147, replicate 3, read-out: Minimum inhibitory concentration (MIC)
# [28] = NCTC10662, P. aeruginosa NCTC 10662, replicate 1, read-out: Minimum inhibitory concentration (MIC)
# [29] = NCTC10662, P. aeruginosa NCTC 10662, replicate 2, read-out: Minimum inhibitory concentration (MIC)
# [30] = NCTC10662, P. aeruginosa NCTC 10662, replicate 3, read-out: Minimum inhibitory concentration (MIC)
# [31] = E. gallinarum (VRE) E1 NCTC 12359 VanC1, replicate 1, read-out: Minimum inhibitory concentration (MIC)
# [32] = E. gallinarum (VRE) E1 NCTC 12359 VanC1, replicate 2, read-out: Minimum inhibitory concentration (MIC)
# [33] = E. gallinarum (VRE) E1 NCTC 12359 VanC1, replicate 3, read-out: Minimum inhibitory concentration (MIC)
# [34] = ATCC19606, Acinetobacter Baumannii ATCC 19606, replicate 1, read-out: Minimum inhibitory concentration (MIC)
# [35] = ATCC19606, Acinetobacter Baumannii ATCC 19606, replicate 2, read-out: Minimum inhibitory concentration (MIC)
# [36] = ATCC19606, Acinetobacter Baumannii ATCC 19606, replicate 3, read-out: Minimum inhibitory concentration (MIC)
# [37] = ATCC1228, S. epidermidis ATCC 1228, replicate 1, read-out: Minimum inhibitory concentration (MIC)
# [38] = ATCC1228, S. epidermidis ATCC 1228, replicate 2, read-out: Minimum inhibitory concentration (MIC)
# [39] = ATCC1228, S. epidermidis ATCC 1228, replicate 3, read-out: Minimum inhibitory concentration (MIC)
# [40] = E. faecium (VRE) NCTC 7171, replicate 1, read-out: Minimum inhibitory concentration (MIC)
# [41] = E. faecium (VRE) NCTC 7171, replicate 2, read-out: Minimum inhibitory concentration (MIC)
# [42] = E. faecium (VRE) NCTC 7171, replicate 3, read-out: Minimum inhibitory concentration (MIC)
# [43] = ESBL700603, K. pneumoniae ESBL 700603, replicate 1, read-out: Minimum inhibitory concentration (MIC)
# [44] = ESBL700603, K. pneumoniae ESBL 700603, replicate 2, read-out: Minimum inhibitory concentration (MIC)
# [45] = ESBL700603, K. pneumoniae ESBL 700603, replicate 3, read-out: Minimum inhibitory concentration (MIC)
structure (smiles),measurement,setting,value
"Clc1ccccc1C(c1ccccc1)(c1ccccc1)n1ccnc1 [Clotrimazole, 1-[(2-chlorophenyl)diphenylmethyl]-1H-imidazole]",administered dose detected in urine as active drug,[1]; po,Less than 1%
same,half-life,[1]; po,around 3 hours
same,absorption following oral administration,[1],well absorbed
same,activity against strains of Staphylococci and Enterococci with reduced susceptibility to vancomycin,[2],good activity; also recorded: capable of inhibiting the growth
same,activity against Gram-negative organisms,[3],no significant activity
same,MIC,[4]; [19],> 10 µg/mL
same,MIC,[4]; [20],> 6 µg/mL
same,MIC,[4]; [21],> 6 µg/mL
same,MIC,[5]; [22],1.5 µg/mL
same,MIC,[5]; [23],3.5 µg/mL
same,MIC,[5]; [24],3 µg/mL
same,MIC,[6]; [22],3 µg/mL
same,MIC,[6]; [23],4.5 µg/mL
same,MIC,[6]; [24],5 µg/mL
same,MIC,[7]; [22],1.5 µg/mL
same,MIC,[7]; [23],3 µg/mL
same,MIC,[7]; [24],2.5 µg/mL
same,MIC,[8]; [22],1.5 µg/mL
same,MIC,[8]; [23],2.5 µg/mL
same,MIC,[8]; [24],2.5 µg/mL
same,MIC,[9]; [22],1.5 µg/mL
same,MIC,[9]; [23],3.5 µg/mL
same,MIC,[9]; [24],3.5 µg/mL
same,MIC,[10]; [25],2.5 µg/mL
same,MIC,[10]; [26],4 µg/mL
same,MIC,[10]; [27],4.5 µg/mL
same,MIC,[11]; [28],> 10 µg/mL
same,MIC,[11]; [29],> 6 µg/mL
same,MIC,[11]; [30],> 6 µg/mL
same,MIC,[12]; [31],4 µg/mL
same,MIC,[12]; [32],6 µg/mL
same,MIC,[12]; [33],> 6 µg/mL
same,MIC,[13]; [34],> 10 µg/mL
same,MIC,[13]; [35],> 6 µg/mL
same,MIC,[13]; [36],> 6 µg/mL
same,MIC,[14]; [37],3 µg/mL
same,MIC,[14]; [38],3 µg/mL
same,MIC,[14]; [39],2.5 µg/mL
same,MIC,[15]; [40],4 µg/mL
same,MIC,[15]; [41],6 µg/mL
same,MIC,[15]; [42],> 6 µg/mL
same,MIC,[16]; [43],> 10 µg/mL
same,MIC,[16]; [44],> 6 µg/mL
same,MIC,[16]; [45],> 6 µg/mL
same,MIC,[17]; [22],6.5 µg/mL
same,MIC,[17]; [23],> 6 µg/mL
same,MIC,[17]; [24],> 6 µg/mL
"Clc1ccc(COC(Cn2ccnc2)c2ccc(Cl)cc2Cl)c(Cl)c1 (centres unmarked) [Miconazole, 1-[2-(2,4-dichlorophenyl)-2-[(2,4-dichlorophenyl)methoxy]ethyl]-1H-imidazole]","biological half life, first phase of triphasic elimination",[18],0.4 hours
same,"biological half life, second phase of triphasic elimination",[18],2.1 hours
same,"biological half life, third phase of triphasic elimination",[18],24.1 hours
same,activity against strains of Staphylococci and Enterococci with reduced susceptibility to vancomycin,[2],good activity
same,activity against strains of Staphylococci and Enterococci with reduced susceptibility to vancomycin,[2]; listed as miconazole,capable of inhibiting the growth
same,activity against Gram-negative organisms,[3],no significant activity
same,MIC,[4]; [19],> 10 µg/mL
same,MIC,[4]; [20],> 6 µg/mL
same,MIC,[4]; [21],> 6 µg/mL
same,MIC,[5]; [22],1 µg/mL
same,MIC,[5]; [23],2 µg/mL
same,MIC,[5]; [24],1 µg/mL
same,MIC,[6]; [22],2.5 µg/mL
same,MIC,[6]; [23],3 µg/mL
same,MIC,[6]; [24],2.5 µg/mL
same,MIC,[7]; [22],1 µg/mL
same,MIC,[7]; [23],2.5 µg/mL
same,MIC,[7]; [24],2.5 µg/mL
same,MIC,[8]; [22],1 µg/mL
same,MIC,[8]; [23],1.5 µg/mL
same,MIC,[8]; [24],2 µg/mL
same,MIC,[9]; [22],1 µg/mL
same,MIC,[9]; [23],2.5 µg/mL
same,MIC,[9]; [24],2.5 µg/mL
same,MIC,[10]; [25],1.5 µg/mL
same,MIC,[10]; [26],3 µg/mL
same,MIC,[10]; [27],3 µg/mL
same,MIC,[11]; [28],> 10 µg/mL
same,MIC,[11]; [29],> 6 µg/mL
same,MIC,[11]; [30],> 6 µg/mL
same,MIC,[12]; [31],2 µg/mL
same,MIC,[12]; [32],3 µg/mL
same,MIC,[12]; [33],3.5 µg/mL
same,MIC,[13]; [34],> 10 µg/mL
same,MIC,[13]; [35],> 6 µg/mL
same,MIC,[13]; [36],> 6 µg/mL
same,MIC,[14]; [37],2.5 µg/mL
same,MIC,[14]; [38],2 µg/mL
same,MIC,[14]; [39],2 µg/mL
same,MIC,[15]; [40],3.5 µg/mL
same,MIC,[15]; [41],6 µg/mL
same,MIC,[15]; [42],5.5 µg/mL
same,MIC,[16]; [43],> 10 µg/mL
same,MIC,[16]; [44],> 6 µg/mL
same,MIC,[16]; [45],> 6 µg/mL
same,MIC,[17]; [22],5 µg/mL
same,MIC,[17]; [23],> 6 µg/mL
same,MIC,[17]; [24],> 6 µg/mL
